# Patent publication US11466044B2 (WAYNE STATE UNIVERSITY, priority 2017, dated 2022)
# Read-outs that look alike come from different tables or passages of the source.
# Key:
# E coli wild type = assay: MIC by broth microdilution, wild type E coli; format: cell-based; conditions: for MIC: Escherichia coli
# [1] = tested on: E coli carrying specific resistance determinants; assay: MIC by broth microdilution, E coli carrying specific resistance determinants; format: cell-based; conditions: for MIC: Escherichia coli
# M. abscessus = assay: MIC by broth microdilution, M. abscessus; format: cell-based; conditions: for MIC: Mycobacteroides abscessus
# M. smegmatis SZ380 = assay: MIC by broth microdilution, M. smegmatis; conditions: for MIC: Mycolicibacterium smegmatis
# P aeruginosa = assay: MIC by broth microdilution, P aeruginosa isolates; format: cell-based, Pseudomonas aeruginosa; conditions: for MIC: read-out: MIC AG220 P. aerugin
# [2] = tested on: Klebsiella pneumonia AG215; assay: MIC by broth microdilution, Klebsiella pneumonia; format: cell-based; conditions: strain AG215 Klebsiella pneumonia; for MIC: Klebsiella pneumoniae, read-out: MIC AG215 K. pneumon
# [3] = tested on: Acinetobacter baumannii pittii AG225; assay: MIC by broth microdilution, Acinetobacter baumannii; format: cell-based; conditions: strain AG225 Acinetobacter baumannii pittii
# [4] = tested on: Enterobacter cloacae AG290; assay: MIC by broth microdilution, Enterobacter cloacae; format: cell-based; conditions: strain AG290 Enterobacter cloacae; for MIC: read-out: MIC AG290 E. cloacae
# MRSA = assay: MIC by broth microdilution, MRSA isolates; format: cell-based; conditions: Table 1 (Example 2); for MIC50 MRSA AG38: strain AG38
# [5] = tested on: wild type bacterial ribosomes; assay: in-vitro translation assay, bacterial ribosomes; format: biochemical; conditions: bacterial ribosome; Table 3 (Example 2); read-out: IC50 Bac
# Text: (§1) The antiribosomal activity of these compounds was investigated with cell-free translation assays using both wild type bacterial ribosomes and hybrid ribosomes carrying eukaryotic decoding A sites enabling the prediction of selectivity.
# [6] = tested on: cytosolic ribosome (human chimeric); format: biochemical; conditions: cytosolic; Table 3 (Example 2); read-out: IC50 Cyt
# Text: as §1
# [7] = tested on: mitochondrial ribosome (human chimeric); format: biochemical; conditions: mitochondrial; Table 3 (Example 2); read-out: IC50 Mit
# Text: as §1
# [8] = ATCC 19977 WT, Table 5 (Example 3)
# [9] = WT, Table 5 (Example 3), read-out: MIC E. coli WT
# [10] = read-out: MIC E. coli pGB2armA armA
# [11] = read-out: MIC E. coli pH434 AAC(2′)-Ib
# [12] = ATCC19977, ATCC 19977 WT, Table 5 (Example 3), read-out: MIC M. abscessus ATCC 19977 WT
# [13] = read-out: MIC M. abscessus clinical isolate
# [14] = read-out: MIC M. abscessus engineered Δeis2
# [15] = SZ380, read-out: MIC M. smegmatis SZ380 WT, SZ380 WT, Table 5 (Example 3)
# [16] = ATCC25922, strain AG212 E. coli (ATCC25922), read-out: MIC AG212 E. coli
# [17] = strain AG220 Pseudomonas aeruginosa ATCC27853
compound,measurement,setting,value
"NCC[C@H](O)C(=O)N[C@@H]1C[C@H](N)[C@@H](O[C@H]2O[C@H](CN)[C@@H](O)[C@H](O)[C@H]2O)[C@H](O)[C@H]1O[C@H]1O[C@H](CO)[C@@H](O)[C@H](N)[C@H]1O [AMK, reference compound]",MIC E. coli WT,"E coli wild type; WT, Table 5 (Example 3)",2 µg/mL
same,MIC E. coli AG106 AAC(2′)-Ia,[1]; Table 5 (Example 3),2 µg/mL
same,MIC E. coli pGB2armA armA,[1]; Table 5 (Example 3),>128 μg/ml
same,MIC E. coli pH434 AAC(2′)-Ib,"[1]; pH434 AAC(2′)-Ib, Table 5 (Example 3)",2 μg/ml
same,MIC M. abscessus ATCC 19977 WT,M. abscessus; [8],1 µg/mL
same,MIC M. abscessus clinical isolate,"M. abscessus; clinical isolate, Table 5 (Example 3)",2 µg/mL
same,MIC M. abscessus engineered Δeis2,M. abscessus; Table 5 (Example 3),0.125 to 0.25 µg/mL
same,MIC M. smegmatis SZ380 WT,M. smegmatis SZ380; Table 5 (Example 3),0.5 µg/mL
CCNC1[C@@H](OC2C(N)CC(N)[C@@H](O)[C@H]2O[C@@H]2O[C@H](CO)[C@H](O)C2O)OC(CN)[C@@H](O)[C@@H]1O (stereo partly shown) [Compound 037],MIC,E coli wild type; [9],16 to 32 µg/mL
same,MIC,[1]; [10],64 to 128 µg/mL
same,MIC,[1]; [11],32 µg/mL
same,MIC,M. abscessus; [12],128 µg/mL
same,MIC,M. abscessus; [13],> 128 µg/mL
same,MIC,M. abscessus; [14],32 µg/mL
same,MIC,M. smegmatis SZ380; [15],64 µg/mL
CCO[C@@H]1C(CN)O[C@H](O[C@@H]2C(N)C[C@@H](N)C(O)[C@H]2O[C@@H]2O[C@H](CO)[C@H](OCCN)C2O)[C@@H](N)C1O (stereo partly shown) [Compound 073],MIC,E coli wild type; [16],8 µg/mL
same,MIC,P aeruginosa; [17],> 128 µg/mL
same,MIC,[2],4 µg/mL
same,MIC,[3],8 µg/mL
same,MIC,[4],4 µg/mL
same,MIC,"M. smegmatis SZ380; SZ380, read-out: MIC SZ380 M. smegmatis, strain SZ380 Mycobacterium smegmatis",8 µg/mL
"CC1CC(N)C2O[C@H](O[C@@H]3C(N)C[C@@H](N)C(O)[C@H]3O[C@@H]3O[C@H](CO)[C@H](O[C@H]4O[C@@H](CN)[C@@H](O)C(O)C4N)C3O)C(N)[C@@H](O)[C@@H]2O1 (stereo partly drawn) [Compound 150, 4-O-(2′,6′-Diamino-4′,8′-anhydro-2′,6′,7′,9′-tetradeoxy-D-erythro-α-D-gluco-nonapyranosyl)-5-O-(β-paramobiosyl)-2-deoxystreptamine.6AcOH]",MIC50 MRSA AG38,MRSA,128 µg/mL
same,MIC50 MRSA AG39,MRSA; strain AG39,128 µg/mL
same,MIC50 MRSA AG42,MRSA; strain AG42,128 µg/mL
same,MIC50 MRSA AG44,MRSA; strain AG44,128 µg/mL
same,MIC50 E coli BM13 (AG06) wt,"E coli wild type; BM13 (AG06) wt, Table 2A (Example 2)",64 to 128 µg/mL
same,MIC WT,"E coli wild type; WT, Table 3 (Example 2)",64 to 128 µg/mL
same,MIC50 E coli pH430 WT,"E coli wild type; pH430 WT, Table 2B (Example 2)",64-128 μg/ml
same,MIC50 E coli AG01,"E coli wild type; strain AG01, Table 1 (Example 2)",>128 µg/mL
same,MIC50 E coli AG03,"E coli wild type; strain AG03, Table 1 (Example 2)",>128 µg/mL
same,MIC50 E coli AG55,"E coli wild type; strain AG55, Table 1 (Example 2)",>128 µg/mL
same,MIC50 P aeruginosa AG31,"P aeruginosa; strain AG31, Table 1 (Example 2)",>128 µg/mL
same,MIC50 P aeruginosa AG32,"P aeruginosa; strain AG32, Table 1 (Example 2)",>128 µg/mL
same,MIC50 P aeruginosa AG33,"P aeruginosa; strain AG33, Table 1 (Example 2)",>128 µg/mL
same,MIC50 P aeruginosa AG86,"P aeruginosa; strain AG86, Table 1 (Example 2)",>128 µg/mL
same,IC50,[5],0.48 µM
same,IC50,[6],12 µM
same,IC50,[7],4.1 µM
same,MIC SZ380 M. smegmatis,M. smegmatis SZ380; strain SZ380 Mycobacterium smegmatis,16 to 32 µg/mL
CCC(O)C1OC(OC2C(N)CC(N)C(O)C2OC2OC(CO)C(OC3OC(CN)C(O)C(O)C3N)C2O)C(N)C(O)C1O (stereo not shown) [Compound 189],MIC50 MRSA AG38,MRSA,4 to 8 µg/mL
same,MIC AG212 E. coli,E coli wild type; strain AG212 E. coli (ATCC25922),8 µg/mL
same,MIC AG220 P. aerugin,P aeruginosa; [17],>64 µg/mL
same,MIC AG215 K. pneumon,[2],2 µg/mL
same,MIC AG225 A. baumannii,[3],4 to 8 µg/mL
same,MIC AG290 E. cloacae,[4],2 to 4 µg/mL
CCC[C@H]1C[C@H](N)[C@@H](O[C@@H]2C(N)C[C@@H](N)C(O)[C@H]2O[C@@H]2O[C@H](CNC=O)[C@H](O[C@H]3OC(CN)[C@@H](O)C(O)C3N)C2O)OC1CO (stereo partly shown) [Compound 190],MIC,E coli wild type; [16],16 µg/mL
same,MIC,P aeruginosa; [17],> 64 µg/mL
same,MIC,[2],32 µg/mL
same,MIC,[3],> 64 µg/mL
same,MIC,[4],16 to 32 µg/mL
CCC(O)C1O[C@H](O[C@@H]2C(N)C[C@@H](N)C(O)[C@H]2O[C@@H]2O[C@H](CO)[C@H](O[C@H]3O[C@@H](CN)[C@@H](O)C(O)C3N)C2O)C(N)[C@@H](O)[C@@H]1O (stereo partly shown) [Compound 192],MIC,E coli wild type; [16],4 µg/mL
same,MIC,P aeruginosa; [17],> 64 µg/mL
same,MIC,[2],2 µg/mL
same,MIC,[3],8 µg/mL
same,MIC,[4],2 to 4 µg/mL
CCC[C@@H]1C(CNCCO)O[C@H](O[C@@H]2C(N)C[C@@H](N)C(O)[C@H]2O[C@@H]2O[C@H](CNCCO)[C@H](O[C@H]3OC(CN)[C@@H](O)C(O)C3N)C2O)[C@@H](N)C1O (stereo partly shown) [Compound 193],MIC,E coli wild type; [16],4 µg/mL
same,MIC,P aeruginosa; [17],> 64 µg/mL
same,MIC,[2],2 µg/mL
same,MIC,[3],32 µg/mL
same,MIC,[4],2 µg/mL
NCC1O[C@H](O[C@@H]2C(O)[C@H](O[C@@H]3C(O)[C@H](N)CC(N)[C@H]3O[C@H]3OC(CO)[C@@H](CCCO)C(O)[C@@H]3N)O[C@@H]2CO)C(N)C(O)[C@@H]1O (stereo partly shown) [Compound 195],MIC,E coli wild type; [16],8 µg/mL
same,MIC,P aeruginosa; [17],64 µg/mL
same,MIC,[2],2 to 4 µg/mL
same,MIC,[3],8 µg/mL
same,MIC,[4],4 µg/mL
NCC1O[C@H](O[C@@H]2C(O)[C@H](O[C@@H]3C(O)[C@H](N)CC(N)[C@H]3O[C@H]3OC(CO)[C@@H](CCO)C(O)[C@@H]3N)O[C@@H]2CO)C(N)C(O)[C@@H]1O (stereo partly shown) [Compound 197],MIC,E coli wild type; [16],2 to 4 µg/mL
same,MIC,P aeruginosa; [17],32 µg/mL
same,MIC,[2],1 µg/mL
same,MIC,[3],2 µg/mL
same,MIC,[4],1 to 2 µg/mL
NCC1O[C@H](O[C@@H]2C(O)[C@H](O[C@@H]3C(O)[C@H](N)CC(N)[C@H]3O[C@H]3OC(CO)[C@@H](CC(O)CO)C(O)[C@@H]3N)O[C@@H]2CO)C(N)C(O)[C@@H]1O (stereo partly shown) [Compound 198],MIC,E coli wild type; [16],8 µg/mL
same,MIC,P aeruginosa; [17],16 µg/mL
same,MIC,[2],2 to 4 µg/mL
same,MIC,[3],8 µg/mL
same,MIC,[4],4 µg/mL
NC[C@@H]1O[C@H](O[C@@H]2C(O)[C@H](O[C@@H]3C(O)[C@H](N)CC(N)[C@H]3O[C@H]3OC4C(O)CCCO[C@H]4[C@H](O)C3N)O[C@@H]2CO)C(N)C(O)[C@@H]1O (stereo partly shown) [Compound 199],MIC,E coli wild type; [16],> 32 µg/mL
same,MIC,P aeruginosa; [17],> 32 µg/mL
same,MIC,[2],32 µg/mL
same,MIC,[3],> 32 µg/mL
same,MIC,[4],> 32 µg/mL
"CN[C@@H]1[C@@H](O)[C@@H](O[C@@H]2[C@@H](O)[C@H](O[C@H]3OC(CNCCO)=CC[C@H]3N)[C@@H](N)C[C@H]2NC(=O)[C@@H](O)CCN)OC[C@]1(C)O [PLZ, plazomicin, reference compound]",MIC,E coli wild type; [9],0.5 to 1 µg/mL
same,MIC,[1]; read-out: MIC E. coli AG106 AAC(2′)-Ia,8 to 16 µg/mL
same,MIC,[1]; [10],> 128 µg/mL
same,MIC,[1]; [11],8 µg/mL
same,MIC,M. abscessus; [12],1 µg/mL
same,MIC,M. abscessus; [13],4 µg/mL
same,MIC,M. abscessus; [14],1 µg/mL
same,MIC,M. smegmatis SZ380; [15],0.25 µg/mL
gentamicin [reference compound],MIC E. coli WT,"E coli wild type; WT, Table 5 (Example 3)",0.5 µg/mL
same,MIC E. coli AG106 AAC(2′)-Ia,[1]; Table 5 (Example 3),2 to 4 µg/mL
same,MIC E. coli pGB2armA armA,[1]; Table 5 (Example 3),>128 μg/ml
same,MIC M. abscessus ATCC 19977 WT,M. abscessus; [8],2 to 4 µg/mL
same,MIC M. abscessus engineered Δeis2,M. abscessus; Table 5 (Example 3),2 µg/mL
same,MIC M. smegmatis SZ380 WT,M. smegmatis SZ380; Table 5 (Example 3),1 µg/mL
